Reference: BindingDB's records for doi:10.7270/Q2K935WV (Nmmlsc, 2008)
Where a name gives a salt, the structure may show the parent alone.

Biological target: Isoform Bcl-X(L) of Bcl-2-like protein 1 (Bcl-xL) (Homo sapiens, UniProt Q07817)
Assay: Bcl-XL binding to Bim peptide disruption – biochemical, multiplexed, bead flow cytometry, human Bcl-XL, dose response (AID 1322)
Settings: pH 7.4, 4 °C
[1] = inactive by the depositor's call

Sequence of Isoform Bcl-X(L) of Bcl-2-like protein 1 (Bcl-xL) (Q07817 whole entry G70A, canonical isoform): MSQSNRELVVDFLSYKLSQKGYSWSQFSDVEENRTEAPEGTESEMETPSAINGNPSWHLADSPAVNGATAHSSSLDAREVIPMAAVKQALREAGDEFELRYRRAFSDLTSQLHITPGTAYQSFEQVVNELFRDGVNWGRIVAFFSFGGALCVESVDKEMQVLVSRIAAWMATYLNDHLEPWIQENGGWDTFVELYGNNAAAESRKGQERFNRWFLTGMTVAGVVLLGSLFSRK

Row | SMILES | EC50 | EC50 [1]
1 | CN1CCc2cccc3c2[C@@H]1Cc1ccc(O)c(O)c1-3 | 18.6 µM | –
2 | CCN(CC)c1ccc(-c2nn3c(-c4cccnc4)nnc3s2)cc1 | – | 7.92 µM
3 | CCOCCCNc1nc(S)nc2cc(OC)c(OC)cc12 | – | 3.43 µM
4 | COCCNc1[nH]c(=S)nc2cc(OC)c(OC)cc12 | – | 7.43 µM
5 | CN1CCN(C2=C(Cl)C(=O)C(c3cnc(N4CCCCC4)s3)=C(Cl)C2=O)CC1 | – | 1 µM
6 | CCOC(=O)c1ccc(Nc2nc(C(=O)OCC)nc3ccccc23)cc1 | – | 2.97 µM
7 | CCOCCCn1c(N)c(C(=O)Nc2sc3c(c2C(=O)OC)CCCC3)c2nc3ccccc3nc21 | – | 1.97 µM
8 | COc1cccc(CN=Nc2nn3cnnc3c3ccccc23)c1O | 0.57 µM | –
9 | CCN1C(=O)/C(=C/C=C2\C=CN(CC)c3ccccc32)SC1=S | – | 29.5 µM
10 | Cc1ccc(-c2ccc(/C=C/C(=O)c3ccccc3)o2)cc1 | – | 5.19 µM
11 | CCC(/C=C1\Sc2ccc(OC)cc2N1CCO)=C\c1sc2ccc(OC)cc2[n+]1CCO | 19.2 µM | –
12 | O=S1(=O)N=C(N(CCO)N=C/C=C/c2ccccc2)c2ccccc21 | – | 20 µM
13 | COc1ccc(-n2c(=O)c3ccccc3c3ccccc3c2=O)c(OC)c1 | – | 12.8 µM
14 | CCOC(=O)c1c2c3c(cccc3[nH]c1=O)C(=O)c1ccccc1-2 | – | 2.12 µM
15 | Cc1nc2ncccn2c1-c1csc(Nc2ccc(O)cc2)n1 | 0.39 µM | –
16 | COc1cc2nc(=S)n(CCCN3CCOCC3)c(N)c2cc1OC | – | 10.9 µM
17 | Cc1ccc(C(=O)/C=C/c2ccc(-c3ccc(C)cc3)o2)cc1 [1-p-Tolyl-3-(5-p-tolyl-furan-2-yl)-propenone] | – | 2.14 µM
18 | Cc1cc(OCc2cn3cccnc3n2)ccc1Cl [2-[(4-chloranyl-3-methyl-phenoxy)methyl]imidazo[1,2-a]pyrimidine] | – | 17.9 µM
19 | O=C(CSc1ccc2nnc(-c3ccccn3)n2n1)Nc1nccs1 [2-[[3-(2-pyridinyl)-[1,2,4]triazolo[4,3-b]pyridazin-6-yl]thio]-N-(2-thiazolyl)acetamide] | – | 11.3 µM
20 | O=C(/C=C/c1ccccc1Cl)c1ccccc(=O)c1O [3-[(E)-3-(2-chlorophenyl)prop-2-enoyl]-2-oxidanyl-cyclohepta-2,4,6-trien-1-one] | – | 19.3 µM
21 | NC(=O)c1sc2nc3c(c(-c4ccco4)c2c1N)CCC3 [3-amino-4-(2-furyl)-6,7-dihydro-5H-cyclopenta[b]thieno[3,2-e]pyridine-2-carboxamide] | – | 3.43 µM
22 | c1cncc(-c2nnc3n2N=C(c2cccs2)CS3)c1 [3-pyridin-3-yl-6-thiophen-2-yl-7H-[1,2,4]triazolo[3,4-b][1,3,4]thiadiazine] | – | 7.17 µM
23 | Cc1nc2ncccn2c1-c1csc(Nc2ccccc2)n1 [4-(2-methyl-3-imidazo[1,2-a]pyrimidinyl)-N-phenyl-2-thiazolamine] | – | 10.1 µM

Row | SMILES | EC50 | EC50 [1]
24 | Cc1cc(C)nc(SCc2cc(=O)c(OC(=O)c3ccc(Cl)c([N+](=O)[O-])c3)co2)n1 [4-chloro-3-nitrobenzoic acid [6-[[(4,6-dimethyl-2-pyrimidinyl)thio]methyl]-4-oxo-3-pyranyl] ester] | – | 5.09 µM
25 | O=C(N[N-][CH+]c1ccc(-c2ccccc2[N+](=O)[O-])o1)c1cncc(Br)c1 [5-bromo-N-[[5-(2-nitrophenyl)furan-2-yl]methylideneamino]pyridine-3-carboxamide] | – | 28.3 µM
26 | COc1cc2nc(=S)[nH]c(NCC3CCCO3)c2cc1OC (stereo unspecified) [6,7-dimethoxy-4-(2-oxolanylmethylamino)-1H-quinazoline-2-thione] | – | 4.65 µM
27 | CCOc1ccccc1-n1c(=O)c2ccccc2c2ccccc2c1=O [6-(2-ethoxyphenyl)-5H-dibenzo[c,e]azepine-5,7(6H)-dione] | – | 26.5 µM
28 | COc1ccc(C2=Nn3c(nnc3-c3ccco3)SC2)cc1OC [6-(3,4-Dimethoxy-phenyl)-3-furan-2-yl-7H-[1,2,4]triazolo[3,4-b][1,3,4]thiadiazine] | – | 2.85 µM
29 | CCOc1ccc(C2=Nn3c(nnc3-c3ccccn3)SC2)cc1 [6-(4-ethoxyphenyl)-3-(2-pyridinyl)-7H-[1,2,4]triazolo[3,4-b][1,3,4]thiadiazine] | – | 14.3 µM
30 | O=c1nc2c(O)cccn2c2c1c(O)nc1ccccc12 [9-Hydroxy-5H-5,8,12a-triaza-benzo[c]phenanthrene-6,7-dione] | – | 13.7 µM
31 | CN(N=C/C=C/c1ccccc1)C1=NS(=O)(=O)c2ccccc21 [(1E,2E)-3-phenylacrylaldehyde (1,1-dioxido-1,2-benzisothiazol-3-yl)(methyl)hydrazone] | – | 2.82 µM
32 | COc1cc(/C=C2\CC/C(=C\c3cc(OC)c(O)c(OC)c3)C2=O)cc(OC)c1O [(2E,5E)-2,5-bis[(4-hydroxy-3,5-dimethoxyphenyl)methylidene]cyclopentan-1-one] | – | 3.02 µM
33 | COc1cc(CN=Nc2nn3cnnc3c3ccccc23)ccc1O [(4E)-2-methoxy-4-[[2-([1,2,4]triazolo[3,4-a]phthalazin-6-yl)hydrazinyl]methylidene]cyclohexa-2,5-dien-1-one] | 2.43 µM | –
34 | O=C1/C(=C\c2ccc(-c3ccccc3Cl)o2)SC(=S)N1CC1CCCO1 (stereo unspecified) [(5E)-5-[[5-(2-chlorophenyl)furan-2-yl]methylidene]-3-(oxolan-2-ylmethyl)-2-sulfanylidene-1,3-thiazolidin-4-one] | – | 1.55 µM
35 | Cc1ccc(-c2ccc(/C=C3\SC(N4CCOCC4)=NC3=O)o2)cc1 [(5Z)-5-[[5-(4-methylphenyl)-2-furanyl]methylidene]-2-(4-morpholinyl)-4-thiazolone] | – | 78.6 µM
36 | O=C(/C=C\c1ccc(-c2ccccc2)o1)c1ccccc1 [(Z)-1-phenyl-3-(5-phenyl-2-furanyl)-2-propen-1-one] | 9.36 µM | –
37 | CN1CCc2cccc3c2[C@H]1Cc1ccc(O)c(O)c1-3 [APOMORPHINE HYDROCHLORIDE] | 18.9 µM | –
38 | COCCCn1c(N)c(C(=O)Nc2sc3c(c2C(=O)OC)CCCC3)c2nc3ccccc3nc21 [MLS000595323] | – | 3.32 µM
39 | COc1cccc2c(SCC(=O)NN=Cc3ccc(O)cc3O)cc(C)nc12 [N'-[(E)-(2-hydroxy-4-oxo-1-cyclohexa-2,5-dienylidene)methyl]-2-[(8-methoxy-2-methyl-4-quinolinyl)thio]acetohydrazide] | 83.6 µM | –
40 | c1ccc(Nc2cccc(Nc3ccccc3)n2)cc1 [N,N'-diphenyl-2,6-pyridinediamine] | – | 6.98 µM
41 | COc1cc(C=NNC(=O)CN(Cc2ccco2)S(=O)(=O)c2ccccc2)ccc1O [N-(2-furanylmethyl)-N-[2-[[(E)-(3-methoxy-4-oxo-1-cyclohexa-2,5-dienylidene)methyl]hydrazo]-2-oxoethyl]benzenesulfonamide] | 18.4 µM | –
42 | CC(=O)c1ccc(NC(=O)c2ccc3nc(-c4ccco4)c(-c4ccco4)nc3c2)cc1 [N-(4-acetylphenyl)-2,3-di-2-furyl-6-quinoxalinecarboxamide] | – | 23.1 µM
43 | COc1cccc(CN=Nc2nn3cnnc3c3ccccc23)c1 [N-[1-(3-Methoxy-phenyl)-meth-(E)-ylidene]-N'-[1,2,4]triazolo[3,4-a]phthalazin-6-yl-hydrazine] | 2.04 µM | –
44 | COc1ccc(CCNC(=O)c2ccc3nc(-c4ccco4)c(-c4ccco4)nc3c2)cc1OC [N-[2-(3,4-dimethoxyphenyl)ethyl]-2,3-di-2-furylquinoxaline-6-carboxamide] | – | 20.7 µM
45 | Cc1cccc(C(=O)/N=c2\c(C#N)cc3c(=O)n4cccc(C)c4nc3n2Cc2ccco2)c1 [N-[3-cyano-1-(furan-2-ylmethyl)-10-methyl-5-oxodipyrido[3,4-c:1',2'-f]pyrimidin-2-ylidene]-3-methylbenzamide] | – | 50.4 µM

The next lines start with the values.

Row | EC50 | EC50 [1] | SMILES
46 | – | 10.2 µM | O=C1c2ccccc2-c2onc3ccc(NCc4ccco4)c1c23 [MLS000080234]
47 | – | 11.7 µM | Cc1cc(-c2nnc3n2N=C(c2ccc(-c4ccccc4)cc2)CS3)[nH]n1 [MLS000082991]
48 | – | 26.5 µM | Cc1cc2n(c1)CCn1c(C)ccc1-2 [MLS000104384]
49 | – | 25.3 µM | CCCCNC(=O)c1ccc2nc(-c3ccco3)c(-c3ccco3)nc2c1 [MLS000119995]
50 | – | 18.1 µM | Clc1nc(NCc2cccnc2)nc(N2CCOCC2)n1 [MLS000121154]
51 | 3.81 µM | – | CCCCNc1[nH]c(=S)nc2cc(OC)c(OC)cc12 [MLS000520261]
52 | – | 0.51 µM | COc1cc2nc(=S)[nH]c(NCCc3ccc(S(N)(=O)=O)cc3)c2cc1OC [MLS000674601]
53 | – | 18.7 µM | COc1ccc(C)cc1-n1c(=O)c2ccccc2c2ccccc2c1=O [MLS000682999]
54 | – | 19.6 µM | Cc1ccnc(SCc2cc(=O)c(OC(=O)c3ccc(Cl)c([N+](=O)[O-])c3)co2)n1 [MLS000696790]
55 | 16.1 µM | – | OCCN1CCN(CCCc2c3c(cc4c2CCC4)CCC3)CC1 [MLS000698424]
56 | – | 5.86 µM | CCOC(=O)c1c(O)nc2ccc(Cl)c3c2c1-c1ccccc1C3=O [MLS000704595]
57 | – | 46.1 µM | Cc1ccc(OCc2cn3cccnc3n2)cc1 [MLS000723172]
58 | – | 3.65 µM | COCCCNc1nc(S)nc2cc(OC)c(OC)cc12 [SMR000026607]
59 | 1.14 µM | – | O=C1c2ccccc2-c2onc3ccc(NCCCn4ccnc4)c1c23 [SMR000044769]
60 | – | 20.6 µM | CSc1nnc2c3cc(C)ccc3n(Cc3ccccc3)c2n1 [SMR000046397]
61 | – | 21.9 µM | c1ccc(-c2nc(N3CCCCCC3)c3ccccc3n2)nc1 [SMR000046752]
62 | – | 11.7 µM | C#CCn1cc(C=C2C(=O)c3ccccc3C2=O)c2ccccc21 [SMR000196125]
63 | – | 19.2 µM | CN(N=Cc1cccnc1)C1=NS(=O)(=O)c2ccccc21 [SMR000207578]
64 | 49.7 µM | – | Clc1nc2ccccc2cc1CN=Nc1nc2ccccc2[nH]1 [SMR000221568]
65 | – | 17.6 µM | COc1ccc(OC)c(-n2c(=O)c3ccccc3c3ccccc3c2=O)c1 [SMR000236434]
66 | 6.11 µM | – | Nc1c(C(=O)NCC2CCCO2)sc2nc3c(c(-c4ccco4)c12)CC/C3=C\c1ccco1 (stereo unspecified) [SMR000259502]
67 | 9.01 µM | – | Nc1c(C(=O)NC2CC2)sc2nc3c(c(-c4ccco4)c12)CC/C3=C/c1ccco1 [SMR000259554]
68 | – | 13.1 µM | O=C1c2ccccc2-c2onc3ccc(N4CCCC4)c1c23 [SMR000279741]
69 | – | 22.2 µM | O=C(CSc1ccc2nnc(-c3ccncc3)n2n1)Nc1nccs1 [SMR000320332]
70 | 5.17 µM | – | Cc1nnc2ccc(-c3cccc(NC(=O)c4ccco4)c3)nn12 [SMR000324305]
71 | – | 1.14 µM | O=C(Nc1cccc(Cl)c1)Nc1ccnc(-c2cccnc2)n1 [SMR000337179]
